Measured values: article PMC12522106 (Cancer Research Communications, 2025)

What was measured:
LM7 sarcospheres = assay: Sarcosphere resazurin metabolic activity (initial and secondary screens); format: cell-based, human; conditions: for activity in combination with MAP: Bliss curve fitting, LM7
Protocol: (§1) Khanna DVM, PhD (NCI). […] Medium was sterile filtered before use.
(§2) Highly metastatic osteosarcoma cells cultured in monolayers at 50% to 80% confluence were lifted with Accutase (Innovative Cell Technologies, Inc., cat. #NC9839010), resuspended in media, and diluted to the desired concentration. […] Following cell seeding, plates were centrifuged (1,000 g for 10 minutes at 4°C) and then incubated at 37°C with 5% CO2. […] Then, 100 μL drug treatment or vehicle was added to each well. […] Resazurin reduction on day 2 by vehicle-treated sarcospheres was compared with resazurin reduction on day 0 to calculate sarcosphere growth without drug over 2 days in selected experiments.
(§3) Plates were incubated at 37°C in 5% CO2 for 2 or 6 hours.
(§4) Sarcospheres were matured for 24 hours and then treated for 48 hours with media containing 10 µmol/L of each drug and 0.1% DMSO. […] Growth inhibition represents a more clinically translatable measure for screening studies in which a value of 0% represents stable disease since the start of treatment, values of 0% to 100% represent progression in which 100% is the untreated control, and values less than 0% represent regression in which −100% represents blank wells without sarcospheres.

[1] = tested on: monolayers of either established osteosarcoma cell lines or PDX cell lines; design: method as in PMID 30395907, PMID 26601688, PMID 37457661, PMID 35411591; conditions: cited from earlier work
[2] = tested on: spheroids derived from 65 pediatric patients with various types of cancer; design: method as in PMID 36575299; conditions: including seven osteosarcomas; cited from earlier work
[3] = tested on: sarcospheres derived from 143B, MG63.3-GFP, and LM7 cell lines; assay: Sarcosphere resazurin metabolic activity, results stated across all three cell lines; format: cell-based, human; conditions: for effect in initial screen: 48 hours, all three cell lines; for effect on sarcosphere metabolic activity at Cmax: HDIs in clinical trials, tested at their Cmax, with and without MAP
Protocol: as §1, §2, §3, §4

[4] = cited from earlier work

Question: With COc1cc2nccc(Oc3ccc(NC(=O)C4(C(=O)Nc5ccc(F)cc5)CC4)cc3)c2cc1OC [Cabozantinib, cabozantinib] as the compound, how does the “rank in initial screen” value (LM7 sarcospheres; 10 μmol/L) read?
Answer: ranked fifteenth

Question: With CC(C)C[C@H](NC(=O)[C@H](Cc1ccccc1)NC(=O)c1cnccn1)B(O)O [bortezomib] as the compound, how does the “standing in four independent screens” value [1] read?
Answer: among the top hits

Question: What about the “rank of 75 drugs” value [2] of the same compound?
Answer: nineteenth

Question: With N.N.[Cl][Pt][Cl] [cisplatin] as the compound, how does the “effect in initial screen” value ([3]; 10 μmol/L) read?
Answer: no detectable effect

Question: Which “activity in combination with MAP” value (LM7 sarcospheres) does the source give for O=C(CCCCCCC(=O)Nc1ccccc1)NO [vorinostat] here?
Answer: additive-to-synergistic activity

Question: For COc1cccc2c1C(=O)c1c(O)c3c(c(O)c1C2=O)C[C@@](O)(C(=O)CO)C[C@@H]3O[C@H]1C[C@H](N)[C@H](O)[C@H](C)O1 [doxorubicin], which “effect in initial screen” value ([3]; 10 μmol/L) is on record?
Answer: effective

Question: With CC(C)[C@H](C(=O)Nc1ccc(C(=O)NO)cc1)c1ccccc1 [AR-42] as the compound, how does the “effect on sarcosphere metabolic activity at Cmax” value (shortened to “effect … at Cmax”) [3] read?
Answer: most effective

Question: Which results are given for CC(C)C[C@H](NC(=O)[C@H](CCc1ccccc1)NC(=O)CN1CCOCC1)C(=O)N[C@@H](Cc1ccccc1)C(=O)N[C@@H](CC(C)C)C(=O)[C@@]1(C)CO1 [carfilzomib]?
Answer: rank of overall mean of the three Cmax/ED50 ratios among the 13 drugs ([3]; without MAP): highest overall mean; standing in four independent screens [1]: among the top hits

Question: With Nc1ccccc1NC(=O)c1ccc(CNc2nccc(-c3cccnc3)n2)cc1 [mocetinostat] as the compound, how does the “effect … at Cmax” value [3] read?
Answer: weakly inhibited

Question: For CN(C)Cc1ccc(S(=O)(=O)n2ccc(/C=C/C(=O)NO)c2)cc1 [resminostat], which “effect … at Cmax” value [3] is on record?
Answer: most effective

Question: Which “effect … at Cmax” value [3] does the source give for CCN(CC)Cc1ccc2cc(COC(=O)Nc3ccc(C(=O)NO)cc3)ccc2c1 [givinostat] here?
Answer: weakly inhibited

Question: Which “effect … at Cmax” value [3] does the source give for CN(C)Cc1c(C(=O)NCCOc2ccc(C(=O)NO)cc2)oc2ccccc12 [abexinostat] here?
Answer: weakly inhibited

Question: Which “effect … at Cmax” value [3] does the source give for CCCCc1nc2cc(/C=C/C(=O)NO)ccc2n1CCN(CC)CC [pracinostat] here?
Answer: weakly inhibited

Question: For Cn1cc(CNCC2CCN(c3ncc(C(=O)NO)cn3)CC2)c2ccccc21 [quisinostat], which “effect … at Cmax” value [3] is on record?
Answer: weakly inhibited

Question: With Cc1[nH]c2ccccc2c1CCNCc1ccc(/C=C/C(=O)NO)cc1 [panobinostat] as the compound, how does the “standing in four independent screens” value [1] read?
Answer: among the top hits

Question: What about the “rank of 75 drugs” value [2] of the same compound?
Answer: fifteenth

Question: What does the source list for CC[C@@]1(O)C(=O)OCc2c1cc1n(c2=O)Cc2cc3c(CN(C)C)c(O)ccc3nc2-1 [topotecan]?
Answer: Cmax [4]: 6.5 nM; rank in initial screen ([3]; 10 μmol/L): ranked eighth

Question: With Cc1ccc(C(=O)Nc2ccc(CN3CCN(C)CC3)c(C(F)(F)F)c2)cc1C#Cc1cnc2cccnn12 [ponatinib] as the compound, how does the “activity in combination with MAP” value (LM7 sarcospheres) read?
Answer: additive-to-synergistic activity

Question: Which “effect in initial screen” value ([3]; 10 μmol/L) does the source give for CO[C@H]1C[C@@H]2CC[C@@H](C)[C@@](O)(O2)C(=O)C(=O)N2CCCC[C@H]2C(=O)O[C@H]([C@H](C)C[C@@H]2CC[C@@H](OCCO)[C@H](OC)C2)CC(=O)[C@H](C)/C=C(\C)[C@@H](O)[C@@H](OC)C(=O)[C@H](C)C[C@H](C)/C=C/C=C/C=C/1C [everolimus] here?
Answer: little or no effect
